Consider three compounds from patent publication US11052101B2, “Methods for treating cancer using purine analogs by depleting intracellular ATP” (National Guard Health Affairs, priority 2019, dated 2021).

In experiment [1] the test system is primary CLL cells. In words: Western blotting / immunoblotting of apoptosis markers (cleaved PARP, caspases). It is filed as cell-based, human. To be noted: for apoptosis by immunoblotting with apoptotic markers: 30 uM isoproterenol 12 hrs pre-treatment, 10 uM fludarabine 48 hr; for cleaved PARP (apoptosis marker), western blot: 3 uM isoproterenol, 24 hr, IBMX positive control. The method, then: Cell death markers for apoptosis (cleaved PARP, cleaved caspase 3 and caspase 9) and autophagy (accumulation of LC3 II) were assessed by western blotting.
[…] Cells were then harvested and examined by immunoblotting with apoptotic markers Cleaved PARP and caspace 9.
Control primary CLL cells ([…]), 10 uM fludarabine (Flud), a combination of both drugs at these concentrations (Flud/Iso), 0.5 uM doxorubicin (Dodo), a combination of 0.5 uM doxorubicin and 30 uM isoproterenol (Dodo/Iso), 0.5 uM mitoxantrone, and a combination of 0.5 uM mitoxantrone and 30 uM isoproterenol and incubated. Cells were than harvested and examined by immunoblotting with the indicated apoptotic markers.
(Immunoblotting shows a protein as a band on a membrane.)

In experiment [2] the test system is primary CLL cells. In kind it is cell-based. How it is done: (§1) To assess viability of the treated cells, cells were stained by propidium iodide and analyzed by flow cytometry.
(§2) The PI/flow cytometry assay assesses cell viability using propidium iodide (PI) which is a membrane impermanent dye that is generally excluded from viable cells. It binds to double stranded DNA by intercalating between base pairs.
Primary CLL cells were isolated from three CLL patients and were exposed 10 uM fludarabine (a purine analog) alone or in combination with 30 uM isoproterenol to assess the effects of the drug(s) on cytotoxicity and growth. Induced cell death was assessed by PI staining and flow cytometry.
After 24 hours treatment, the treated cells were stained with the cell-death marker, propidium iodide and analyzed with flow-cytometry to determine % induced cell death.

The next experiment relates to CLL primary cells. Nature of the experiment: MTT (ATP independent) cell viability assay. It is filed as cell-based, human. Particulars: gradient of concentrations. The source says: The two assays gave completely different dose-response curves.
The test system of experiment [3] is primary CLL cells. Nature of the experiment: Isoproterenol-induced intracellular cAMP accumulation. In kind it is cell-based, human. Particulars: IBMX pre-treatment one hour, then 10 uM for 24 hr; CLL cells compared to normal cells. How it is done:
Isoproterenol-induced intracellular cAMP accumulation in normal PBMCs and primary CLL cells was assessed. Cell samples were pre-treated for one hour with phosphodiesterase inhibitor (IBMX) and then with 10 uM isoproterenol for 24 hr.
On the technique in general: Changes in cAMP serve as a functional read-out for many G protein-coupled receptors.

The subject of another experiment is normal PBMCs. In words: Induced cell death by propidium iodide staining and flow cytometry. It is filed as cell-based, human. To be noted: 3 uM. How it is done: as §1, §2
Cells from CLL, AML, and from normal donors were treated with 30 μM isoproterenol, 10 μM fludarabine, or a mixture of both drugs at these concentrations as shown by FIGS. 3A, 3C and 3E respectively.
For orientation: Flow cytometry measures light scatter and fluorescence of single cells or particles in a stream.

The subject of the next experiment is p-CREB. In words: Human phosphokinase array. To be noted: 20 μM for 24 hours, compared to untreated. It is filed as cell-based. The method, then:
Samples of primary CLL cells were treated in vitro with 20 μM isoproterenol for 24 hours in a human phosphokinase array. In the array each kinase was spotted in duplicate with hybridization signals at the corners serving as controls. Relative levels of protein phosphorylation (normalized intensity for each antibody) were calculated for each untreated and treated sample.

In experiment [4] the test system is primary CLL cells. Nature of the experiment: CellTiter-Glo ATP-based luminescent assay, intracellular ATP depletion. Particulars: for intracellular ATP depletion (luminescence), dose-response: gradient of concentrations, 1 to 20 μM. It is filed as cell-based, human. The method, then: Primary CLL cells were treated with 3 uM isoproterenol (IC50 determined with Cell-titer Glo® assay) for 24 hr. Cell death markers for apoptosis (cleaved PARP, cleaved caspase 3 and caspase 9) and autophagy (accumulation of LC3 II) were assessed by western blotting. The […] phosphodiesterase inhibitor, IBMX, was used as a positive control because it induces apoptosis in CLL B cells.
CellTiter-Glo® Luminescent Cell Viability Assay is a homogeneous method for determining the number of viable cells in culture based on quantitation of the ATP present, an indicator of metabolically active cells.
ATP depletion in CLL cells was measured by the ATP-based luminescent assay CellTiter-Glo®.
Isoproterenol-induced intercellular ATP depletion was determined by the ATP-based luminescent assay CellTiter-Glo®. The efficiency of isoproterenol in depleting intracellular ATP is represented by the dose response curves shown by FIGS. 3B, 3D and 3F respectively.

Entries after “also recorded” stand apart in the source; their conditions may differ.

On to `Nc1nc(F)nc2c1ncn2[C@@H]1O[C@H](CO)[C@@H](O)[C@@H]1O` [fludarabine, Fludarabine], for which the “apoptosis by immunoblotting with apoptotic markers” value in the experiment with primary CLL cells [1] was “Apoptosis was observed”. Also, the “apoptosis, cleaved PARP (relative pixel density)” value with primary CLL cells [1] (30 uM isoproterenol, 10 uM fludarabine) was “induced apoptosis”.

The term IC50 denotes the point on the concentration scale where inhibition reaches its midpoint. For the compound `CC(C)NCC(O)c1ccc(O)c(O)c1` (stereo not shown) [isoproterenol, Isoproterenol], the “cleaved PARP (apoptosis marker), western blot” value in the experiment with primary CLL cells [1] is “no cleaved PARP”. In addition, the “apoptosis by immunoblotting with apoptotic markers” value in the experiment on primary CLL cells [1] was “Apoptosis was not observed”. The “cell death, PI staining / flow cytometry” value in the experiment on primary CLL cells [2] (3 uM) and in the experiment with normal PBMCs was “did not induce any significant cell death” each time. The “cell death, ATP-independent assay (solid line FIG. 1C)” value in the experiment with primary CLL cells [2] (1 to 20 μM) was “did not induce cell death”. Besides, in the experiment with CLL primary cells, the “cell death by MTT assay” value is recorded as “doesn't induce cell death”. Further, the p53 expression entry in the experiment with P53 is listed as “doesn't induce any increase in p53 expression”. Besides, the “intracellular cAMP accumulation” value in the experiment on primary CLL cells [3] is “significantly higher accumulation of cAMP”. For the same compound, the “phosphorylation of p-CREB” value in the experiment with p-CREB is given as “only significantly up-regulated kinase”. In addition, in the experiment with primary CLL cells [4] (1 μM), the “intracellular ATP depletion” value is recorded as “weak intracellular ATP depletion”. Further, the “depletion of intracellular ATP” value in the experiment with primary CLL cells [4] (30 μM for 12 hours) is on record as “more than 80%”. Besides, the “sensitivity to isoproterenol induced intracellular ATP depletion” value in the experiment with primary CLL cells [4] (CLL primary cells compared with other leukemia subtypes and normal PBMCs) was “highest sensitivity”. Also, the IC50 in the experiment with primary CLL cells [4] (Homo sapiens, CLL cell, primary CLL cells, read-out: IC50 determined with Cell-titer Glo assay) was 3000 nM. Moreover, the “intracellular ATP depletion (luminescence), dose-response” value in the experiment with primary CLL cells [4] is listed as “increased intracellular ATP depletion; also recorded: dose-dependent decrease in luminescence”; in the experiment on primary CLL cells [4] (listed as Iso), “induces intracellular ATP depletion”. The “sensitivity to isoproterenol (ATP depletion)” value with primary CLL cells [4] (primary CLL cells from a CLL patient at early stage) was “lesser sensitivity”.

For the compound `CC(C)Cn1c(=O)n(C)c(=O)c2[nH]cnc21` [IBMX], in the experiment with primary CLL cells [1], the “cleaved PARP (apoptosis marker), western blot” value is on record as “presence of cleaved PARP”.
